Experimental findings from US20240166630A1, “INDOLE DERIVATIVES AS SEROTONERGIC AGENTS USEFUL FOR THE TREATMENT OF DISORDERS RELATED THERETO” (Mindset Pharma Inc., priority 2021, published 2024) are described below.

The term half-life denotes the time in which the quantity being followed falls by half. Read a high half-life as slow loss. One may read the microsomal CLint as the rate of metabolic loss divided by the concentration. High values mean rapid turnover, low ones slow turnover. What is called IC50 is the concentration needed to halve the response being measured.

A short description of data set [1]: Liver microsomes stability with NADPH, human. On the procedure: (§1) The objective of this study was to estimate in vitro metabolic stability of representative compounds of the application in pooled human and male mouse liver microsomes. The concentrations of parent compounds in reaction systems were evaluated by LC-MS/MS for estimating the stability in pooled human and male mouse liver microsomes. The in vitro intrinsic clearances of test compounds were determined as well.
(§2) A master solution in the “Incubation Plate” containing phosphate buffer, ultra-pure H2O, MgCl2 solution and liver microsomes was made according to Table 3. The mixture was pre-warmed at 37° C. water bath for 5 minutes.
(§3) 40 μL of 10 mM NADPH solution was added to each well. The final concentration of NADPH was 1 mM. The negative control samples were prepared by replacing NADPH with 40 μL of ultra-pure H2O. Samples were prepared in duplicate. Negative controls were prepared in singlet.
(§4) The reaction was started with the addition of 4 μL of 200 μM test compounds or control compounds to each master solution to get the final concentration of 2 μM. This study was performed in duplicate.
(§5) Aliquots of 50 μL were taken from the reaction solution at 0, 15, 30, 45 and 60 minutes. The reaction solutions were stopped by the addition of 4 volumes of cold methanol with IS (100 nM alprazolam, 200 nM imipramine, 200 nM labetalol and 2 μM ketoprofen). Samples were centrifuged at 3,220 g for 40 minutes. Aliquot of 90 μL of the supernatant was mixed with 90 μL of ultra-pure H2O and then was used for LC-MS/MS analysis.
(§6) LC/MS analysis was performed for all samples from this study using a Shimadzu liquid chromatograph separation system equipped with degasser DGU-20A5R; solvent delivery unit LC-30AD; system controller SIL-30AC; column oven CTO-30A; CTC Analytics HTC PAL System; Mass spectrometric analysis was performed using an Triple Quad™ 5500 instrument.
(§7) All calculations were carried out using Microsoft Excel. Peak area ratios of test compound to internal standard (listed in the below table) were determined from extracted ion chromatograms.
(§8) All calculations were carried out using Microsoft Excel. Peak areas were determined from extracted ion chromatograms. The slope value, k, was determined by linear regression of the natural logarithm of the remaining percentage of the parent drug vs. incubation time curve.
(§9) The in vitro half-life (in vitro t1/2) was determined from the slope value:
(§10) Conversion of the in vitro t1/2 (min) into the in vitro intrinsic clearance (in vitro CLint, in μL/min/mg proteins) was done using the following equation (mean of duplicate determinations): […]
Background: Liver microsomes are vesicles of endoplasmic reticulum, rich in cytochrome P450 enzymes.

Data set [2] can be described thus: Liver microsomes stability with NADPH, mouse. On the procedure: as §1, §2, §3, §4, §5, §6, §7, §8, §9, §10
In another data set the target is human 5-HT2A (Homo sapiens, UniProt P28223). In words: Radioligand binding assay on human 5-HT2A receptor ([3H]-ketanserin). On the procedure: i. The assay buffer was prepared following the table below;
Sequence of human 5-HT2A (P28223 whole entry): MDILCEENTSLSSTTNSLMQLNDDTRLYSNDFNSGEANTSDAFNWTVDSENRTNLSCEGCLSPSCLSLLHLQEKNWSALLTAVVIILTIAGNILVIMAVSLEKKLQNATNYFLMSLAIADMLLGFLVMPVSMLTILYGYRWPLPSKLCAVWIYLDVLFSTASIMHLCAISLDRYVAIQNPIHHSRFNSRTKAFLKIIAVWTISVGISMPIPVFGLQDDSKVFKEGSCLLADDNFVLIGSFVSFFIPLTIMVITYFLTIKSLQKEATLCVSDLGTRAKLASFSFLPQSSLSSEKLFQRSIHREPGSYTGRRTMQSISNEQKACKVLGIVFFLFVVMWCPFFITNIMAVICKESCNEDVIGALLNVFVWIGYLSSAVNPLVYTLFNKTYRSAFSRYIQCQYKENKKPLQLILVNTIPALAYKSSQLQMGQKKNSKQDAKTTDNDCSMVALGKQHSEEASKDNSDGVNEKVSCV
iii. Prepared (v/v) DMSO as follows: a. […] The plates were sealed and incubated at 4° C. for 3 hrs;
iv. Preparation of assay plates: a.
vi. The plates were sealed and incubated at 27° C. for 90 min.

In the case of `[2H]C([2H])(c1c[nH]c2ccccc12)[C@H]1CCCN1C([2H])([2H])[2H]` [I-B-1, (R)-3-((1-(methyl-d3)pyrrolidin-2-yl)methyl-d2)-1H-indole], the “Remaining Percentage (%) after 60 min Human” value in data set [1] (human liver microsomes, with NADPH, 2 μM) is reported as 82.74%. In addition, the half-life at 2 μM in data set [1] (human, microsomes) turned out to be 3.66 h; in data set [2] (male, mouse, microsomes), 1.16 h. Besides, the microsomal CLint at 2 μM was 6.32 µL/min/mg in data set [1] (human, microsomes) and 19.9 µL/min/mg in data set [2] (male, mouse, microsomes). In addition, in data set [2] (mouse liver microsomes, with NADPH, 2 μM), the “Remaining Percentage (%) after 60 min Mouse” value is recorded as 55.00%. At human 5-HT2A, the IC50 was < 0.5 µM.
